# In patent US12351580B2, “NLRP3 modulators” (Innate Tumor Immunity, Inc., priority 2017, dated 2025):
# Tests used:
# TLR7 = molecular target: T1, TLR7 (Homo sapiens, UniProt Q9NYK1); assay: In vitro human TLR7 binding reporter assay (HEK-Blue, NF-kB/AP1-inducible SEAP); format: cell-based; settings: activity range symbols
# T1 construct: host or cells: HEK-Blue cells (human HEK) co-expressing TLR7 and an NF-kB/AP1-inducible SEAP reporter
# T1 sequence (Q9NYK1 27-1049): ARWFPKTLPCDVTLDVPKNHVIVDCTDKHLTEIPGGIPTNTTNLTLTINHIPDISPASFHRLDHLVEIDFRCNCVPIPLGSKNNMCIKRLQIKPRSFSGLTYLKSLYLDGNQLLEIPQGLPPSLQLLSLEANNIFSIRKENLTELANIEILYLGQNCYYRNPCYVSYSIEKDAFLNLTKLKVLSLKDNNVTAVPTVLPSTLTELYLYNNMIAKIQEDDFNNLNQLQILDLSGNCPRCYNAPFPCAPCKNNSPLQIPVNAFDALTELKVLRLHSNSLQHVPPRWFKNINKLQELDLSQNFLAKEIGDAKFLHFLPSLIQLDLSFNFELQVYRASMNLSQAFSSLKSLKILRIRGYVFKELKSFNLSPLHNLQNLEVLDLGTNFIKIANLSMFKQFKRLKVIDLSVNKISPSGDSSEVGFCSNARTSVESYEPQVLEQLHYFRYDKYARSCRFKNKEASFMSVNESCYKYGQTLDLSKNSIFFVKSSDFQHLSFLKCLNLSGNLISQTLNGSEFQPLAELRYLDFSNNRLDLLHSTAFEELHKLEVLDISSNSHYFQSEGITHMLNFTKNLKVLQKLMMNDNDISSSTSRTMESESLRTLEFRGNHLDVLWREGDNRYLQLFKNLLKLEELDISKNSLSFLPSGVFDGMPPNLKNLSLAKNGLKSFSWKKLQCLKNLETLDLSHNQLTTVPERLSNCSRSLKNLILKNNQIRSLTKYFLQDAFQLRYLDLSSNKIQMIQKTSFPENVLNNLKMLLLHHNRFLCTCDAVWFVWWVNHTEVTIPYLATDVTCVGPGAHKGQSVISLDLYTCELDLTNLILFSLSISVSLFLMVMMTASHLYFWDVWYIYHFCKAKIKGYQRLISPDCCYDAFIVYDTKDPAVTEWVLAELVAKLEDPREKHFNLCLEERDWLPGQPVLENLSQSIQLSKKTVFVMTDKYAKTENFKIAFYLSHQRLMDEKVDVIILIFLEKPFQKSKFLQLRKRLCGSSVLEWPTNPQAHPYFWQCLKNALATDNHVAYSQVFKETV
# Protocol: (§1) In Vitro Human TLR7 and TLR8 Binding Reporter Assays
# (§2) Logarithmically-growing human HEK-Blue cells co-expressing a TLR7 or TLR8 gene and a NF-kB/AP1-inducible SEAP (secreted embryonic alkaline phosphatase; Invivogen, San Diego, CA) reporter gene are added to individual wells of a 384-well plate (15,000 cells per 20 μL per well) and maintained for 24 h at 37° C., 5% CO2. Test compounds or DMSO are distributed to separate wells the next day using acoustic liquid handling technology (100 nL per well) and cells are subsequently incubated for 18 h at 37° C., 5% CO2. Cellular SEAP production is measured using an Envision plate reader instrument thirty minutes after adding freshly-made Quanti-Blue reagent (prepared by following manufacturer instructions; Invivogen, San Diego, CA) to the HEK-Blue TLR Nf-kB-SEAP cell reactions. All EC50 values (half-maximal effective concentration) are determined using proprietary data analysis software.
# TLR8 = molecular target: T2, TLR8 (Homo sapiens, UniProt Q9NR97); assay: In vitro human TLR8 binding reporter assay (HEK-Blue, NF-kB/AP1-inducible SEAP); format: cell-based; settings: activity range symbols
# T2 construct: host or cells: HEK-Blue cells (human HEK) co-expressing TLR8 and an NF-kB/AP1-inducible SEAP reporter
# T2 sequence (Q9NR97 27-1041): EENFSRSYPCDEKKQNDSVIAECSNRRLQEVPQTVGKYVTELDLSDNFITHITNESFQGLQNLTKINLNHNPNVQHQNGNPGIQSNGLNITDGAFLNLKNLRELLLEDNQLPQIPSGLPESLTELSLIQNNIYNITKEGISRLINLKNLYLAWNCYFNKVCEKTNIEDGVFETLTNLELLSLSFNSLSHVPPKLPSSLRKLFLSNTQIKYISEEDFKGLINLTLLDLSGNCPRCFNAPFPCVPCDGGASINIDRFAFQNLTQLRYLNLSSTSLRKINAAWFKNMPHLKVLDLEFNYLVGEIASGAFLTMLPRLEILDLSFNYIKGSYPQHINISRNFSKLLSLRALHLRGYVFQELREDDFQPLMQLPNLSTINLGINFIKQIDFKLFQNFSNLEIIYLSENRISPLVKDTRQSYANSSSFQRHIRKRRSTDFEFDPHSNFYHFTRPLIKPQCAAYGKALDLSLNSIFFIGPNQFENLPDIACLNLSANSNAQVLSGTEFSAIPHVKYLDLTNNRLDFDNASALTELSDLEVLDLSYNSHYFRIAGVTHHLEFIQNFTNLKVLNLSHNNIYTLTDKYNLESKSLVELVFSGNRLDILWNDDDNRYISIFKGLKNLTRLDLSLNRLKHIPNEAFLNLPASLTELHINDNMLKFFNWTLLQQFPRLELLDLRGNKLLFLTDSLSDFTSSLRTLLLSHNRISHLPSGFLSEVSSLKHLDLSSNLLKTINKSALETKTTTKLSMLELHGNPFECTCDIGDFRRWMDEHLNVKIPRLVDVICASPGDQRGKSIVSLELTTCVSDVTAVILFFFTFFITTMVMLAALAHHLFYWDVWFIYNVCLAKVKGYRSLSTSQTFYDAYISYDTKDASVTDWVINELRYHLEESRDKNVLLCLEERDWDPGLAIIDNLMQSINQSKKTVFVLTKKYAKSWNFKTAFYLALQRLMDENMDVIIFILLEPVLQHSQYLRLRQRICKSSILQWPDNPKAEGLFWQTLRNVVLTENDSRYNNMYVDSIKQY
# Protocol: as §1, §2
smiles,measurement,setting,value
CCN(Cc1nc2c(N)nc3ccccc3c2n1CCC(=O)NC)C(C)=O [Compound 199],EC50,TLR7,> 100 µM
same,EC50,TLR8,> 100 µM
